The supplement of paper PMC10307832

Columns and labels:
Experiment in all cases: relative viability (nuclei count vs DMSO), 5 days (fraction); higher = more cells survive
[1] = compound: C[C@@H](N)c1ccc(C(=O)Nc2ccnc3[nH]ccc23)cc1 + CC1(C)CCC(c2ccc(Cl)cc2)=C(CN2CCN(c3ccc(C(=O)NS(=O)(=O)c4ccc(N[C@H](CCN5CCOCC5)CSc5ccccc5)c(S(=O)(=O)C(F)(F)F)c4)cc3)CC2)C1 [Navitoclax] (partner 0.5 µM)
In short: (§1)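 Values are medians from duplicate plates. Each reflects relative viability, defined as the nuclei count of treated wells over that of vehicle wells. Lung cancer cell lines in 1536-well plates were pin-tool dosed one day after seeding with one drug alone or with a fixed anchor-drug dose plus five library-drug doses (not always all listed) in √10 steps, then fixed, stained and imaged at 4× after 5 days.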

[2] = compound: C1CNCCC1C2=CC(=NN2)C3=CC=NC=C3 + CS(=O)(=O)CCNCc1ccc(-c2ccc3ncnc(Nc4ccc(OCc5cccc(F)c5)c(Cl)c4)c3c2)o1 [Lapatinib] (partner 2 µM)
In short: as §1

[3] = compound: C1CNCCC1C2=CC(=NN2)C3=CC=NC=C3 + CCNC(=O)c1noc(-c2cc(C(C)C)c(O)cc2O)c1-c1ccc(CN2CCOCC2)cc1 [Luminespib] (partner 0.01 µM)
In short: as §1

[4] = compound: O[C@H]1CC[C@H](Nc2ncc3nc(Nc4c(F)cc(F)cc4F)n([C@H]4CCOC4)c3n2)CC1 [Tanzisertib] + COc1cccc2cc(-c3nc([C@H]4CC[C@H](C(=O)O)CC4)n4ncnc(N)c34)[nH]c12 [OSI-027] (partner 0.5 µM)
In short: as §1

Cell Line: NCI-H596
- relative viability ([1]; first compound 0.04 µM): 1.01
- relative viability ([1]; first compound 0.1265 µM): 1.2
- relative viability ([1]; first compound 0.4 µM): 0.96
- relative viability ([1]; first compound 1.265 µM): 1.06
- relative viability ([1]; first compound 4 µM): 0.955
- relative viability ([2]; first compound 0.08 µM): 1.08
- relative viability ([2]; first compound 0.8 µM): 1.17
- relative viability ([2]; first compound 2.53 µM): 1.07
- relative viability ([2]; first compound 8 µM): 0.993
- relative viability ([3]; first compound 0.08 µM): 0.967
- relative viability ([3]; first compound 0.8 µM): 1.07
- relative viability ([3]; first compound 2.53 µM): 1.11
- relative viability ([3]; first compound 8 µM): 1.16
- relative viability ([4]; first compound 0.08 µM): 0.779
- relative viability ([4]; first compound 0.253 µM): 0.666
- relative viability ([4]; first compound 0.8 µM): 0.766
- relative viability ([4]; first compound 2.53 µM): 0.63
- relative viability ([4]; first compound 8 µM): 0.555

Cell Line: RERF-LC-KJ
- relative viability ([1]; first compound 0.04 µM): 0.962
- relative viability ([1]; first compound 0.1265 µM): 0.99
- relative viability ([1]; first compound 0.4 µM): 1.42
- relative viability ([1]; first compound 1.265 µM): 1.1
- relative viability ([1]; first compound 4 µM): 0.95
- relative viability ([2]; first compound 0.08 µM): 0.784
- relative viability ([2]; first compound 0.8 µM): 0.835
- relative viability ([2]; first compound 2.53 µM): 0.843
- relative viability ([2]; first compound 8 µM): 0.85
- relative viability ([3]; first compound 0.08 µM): 1.14
- relative viability ([3]; first compound 0.8 µM): 1.3
- relative viability ([3]; first compound 2.53 µM): 1.45
- relative viability ([3]; first compound 8 µM): 1.42
- relative viability ([4]; first compound 0.08 µM): 0.625
- relative viability ([4]; first compound 0.253 µM): 0.566
- relative viability ([4]; first compound 0.8 µM): 0.598
- relative viability ([4]; first compound 2.53 µM): 0.503
- relative viability ([4]; first compound 8 µM): 0.489

Cell Line: NCI-H322M
- relative viability ([1]; first compound 0.04 µM): 1.2
- relative viability ([1]; first compound 0.1265 µM): 1.21
- relative viability ([1]; first compound 0.4 µM): 1.36
- relative viability ([1]; first compound 4 µM): 1.55
- relative viability ([2]; first compound 0.08 µM): 0.545
- relative viability ([2]; first compound 0.8 µM): 0.555
- relative viability ([2]; first compound 2.53 µM): 0.592
- relative viability ([2]; first compound 8 µM): 0.524
- relative viability ([3]; first compound 0.08 µM): 0.677
- relative viability ([3]; first compound 0.8 µM): 0.944
- relative viability ([3]; first compound 2.53 µM): 0.904
- relative viability ([3]; first compound 8 µM): 1.04
- relative viability ([4]; first compound 0.08 µM): 0.636
- relative viability ([4]; first compound 0.253 µM): 0.623
- relative viability ([4]; first compound 0.8 µM): 0.539
- relative viability ([4]; first compound 2.53 µM): 0.6
- relative viability ([4]; first compound 8 µM): 0.538

Cell Line: COR-L 105
- relative viability ([1]; first compound 0.04 µM): 0.795
- relative viability ([1]; first compound 0.1265 µM): 0.74
- relative viability ([1]; first compound 0.4 µM): 0.783
- relative viability ([1]; first compound 1.265 µM): 0.769
- relative viability ([1]; first compound 4 µM): 0.519
- relative viability ([2]; first compound 0.08 µM): 0.32
- relative viability ([2]; first compound 0.8 µM): 0.34
- relative viability ([2]; first compound 2.53 µM): 0.389
- relative viability ([2]; first compound 8 µM): 0.363
- relative viability ([3]; first compound 0.08 µM): 0.688
- relative viability ([3]; first compound 0.8 µM): 0.648
- relative viability ([3]; first compound 2.53 µM): 0.921
- relative viability ([3]; first compound 8 µM): 0.962
- relative viability ([4]; first compound 0.08 µM): 0.663
- relative viability ([4]; first compound 0.253 µM): 0.686
- relative viability ([4]; first compound 0.8 µM): 0.682
- relative viability ([4]; first compound 2.53 µM): 0.631
- relative viability ([4]; first compound 8 µM): 0.444

Cell Line: NCI-H1993
- relative viability ([1]; first compound 0.04 µM): 0.904
- relative viability ([1]; first compound 0.1265 µM): 1.01
- relative viability ([1]; first compound 1.265 µM): 0.901
- relative viability ([1]; first compound 4 µM): 0.947
- relative viability ([2]; first compound 0.08 µM): 0.764
- relative viability ([2]; first compound 0.8 µM): 0.881
- relative viability ([2]; first compound 2.53 µM): 0.837
- relative viability ([2]; first compound 8 µM): 0.778
- relative viability ([3]; first compound 0.08 µM): 0.748
- relative viability ([3]; first compound 0.8 µM): 0.918
- relative viability ([3]; first compound 2.53 µM): 0.79
- relative viability ([3]; first compound 8 µM): 0.981
- relative viability ([4]; first compound 0.08 µM): 0.604
- relative viability ([4]; first compound 0.253 µM): 0.578
- relative viability ([4]; first compound 0.8 µM): 0.485
- relative viability ([4]; first compound 2.53 µM): 0.498
- relative viability ([4]; first compound 8 µM): 0.59

Cell Line: NCI-H1437
- relative viability ([1]; first compound 0.04 µM): 1.11
- relative viability ([1]; first compound 0.1265 µM): 1.06
- relative viability ([1]; first compound 0.4 µM): 1.15
- relative viability ([1]; first compound 1.265 µM): 1.1
- relative viability ([1]; first compound 4 µM): 0.993
- relative viability ([2]; first compound 0.08 µM): 0.765
- relative viability ([2]; first compound 0.8 µM): 0.912
- relative viability ([2]; first compound 2.53 µM): 0.827
- relative viability ([2]; first compound 8 µM): 0.769
- relative viability ([3]; first compound 0.08 µM): 1.1
- relative viability ([3]; first compound 0.8 µM): 1.16
- relative viability ([3]; first compound 2.53 µM): 1.09
- relative viability ([3]; first compound 8 µM): 1.14
- relative viability ([4]; first compound 0.08 µM): 0.85
- relative viability ([4]; first compound 0.253 µM): 0.822
- relative viability ([4]; first compound 0.8 µM): 0.943
- relative viability ([4]; first compound 2.53 µM): 0.902
- relative viability ([4]; first compound 8 µM): 0.908

Cell Line: NCI-H838
- relative viability ([1]; first compound 0.04 µM): 1.08
- relative viability ([1]; first compound 0.1265 µM): 1.1
- relative viability ([1]; first compound 0.4 µM): 0.84
- relative viability ([1]; first compound 1.265 µM): 0.714
- relative viability ([1]; first compound 4 µM): 0.524
- relative viability ([2]; first compound 0.08 µM): 0.906
- relative viability ([2]; first compound 0.8 µM): 0.97
- relative viability ([2]; first compound 2.53 µM): 1.07
- relative viability ([2]; first compound 8 µM): 0.895
- relative viability ([3]; first compound 0.08 µM): 0.315
- relative viability ([3]; first compound 0.8 µM): 0.355
- relative viability ([3]; first compound 2.53 µM): 0.281
- relative viability ([3]; first compound 8 µM): 0.302
- relative viability ([4]; first compound 0.08 µM): 0.401
- relative viability ([4]; first compound 0.253 µM): 0.426
- relative viability ([4]; first compound 0.8 µM): 0.453
- relative viability ([4]; first compound 2.53 µM): 0.418
- relative viability ([4]; first compound 8 µM): 0.4

Cell Line: NCI-H1666
- relative viability ([1]; first compound 0.04 µM): 1.05
- relative viability ([1]; first compound 0.1265 µM): 1.21
- relative viability ([1]; first compound 0.4 µM): 1.09
- relative viability ([1]; first compound 1.265 µM): 1.19
- relative viability ([1]; first compound 4 µM): 1.17
- relative viability ([2]; first compound 0.08 µM): 0.522
- relative viability ([2]; first compound 0.8 µM): 0.739
- relative viability ([2]; first compound 2.53 µM): 0.845
- relative viability ([2]; first compound 8 µM): 0.625
- relative viability ([3]; first compound 0.08 µM): 0.921
- relative viability ([3]; first compound 0.8 µM): 1.11
- relative viability ([3]; first compound 2.53 µM): 1.05
- relative viability ([3]; first compound 8 µM): 1.01
- relative viability ([4]; first compound 0.08 µM): 0.877
- relative viability ([4]; first compound 0.253 µM): 0.869
- relative viability ([4]; first compound 0.8 µM): 0.944
- relative viability ([4]; first compound 2.53 µM): 0.834
- relative viability ([4]; first compound 8 µM): 0.786

Cell Line: EBC-1
- relative viability ([1]; first compound 0.04 µM): 0.414
- relative viability ([1]; first compound 0.1265 µM): 0.406
- relative viability ([1]; first compound 0.4 µM): 0.379
- relative viability ([1]; first compound 1.265 µM): 0.377
- relative viability ([1]; first compound 4 µM): 0.347
- relative viability ([2]; first compound 0.08 µM): 0.202
- relative viability ([2]; first compound 0.8 µM): 0.219
- relative viability ([2]; first compound 2.53 µM): 0.209
- relative viability ([2]; first compound 8 µM): 0.239
